One block for each compound: values may come before it. The source made the active and inactive calls. The rule behind the calls is not given here.
Experiments:
[1] = target: T1, Cystine/glutamate transporter (Homo sapiens) (UniProt Q9UPY5); experiment: Inhibition of XCT in CpG-A-activated human plasmacytoid dendritic cells at 200 uM assessed as decrease in IFN-alpha production; assay type: cell-based; settings: Plasmacytoid dendritic cell
T1 sequence (whole entry): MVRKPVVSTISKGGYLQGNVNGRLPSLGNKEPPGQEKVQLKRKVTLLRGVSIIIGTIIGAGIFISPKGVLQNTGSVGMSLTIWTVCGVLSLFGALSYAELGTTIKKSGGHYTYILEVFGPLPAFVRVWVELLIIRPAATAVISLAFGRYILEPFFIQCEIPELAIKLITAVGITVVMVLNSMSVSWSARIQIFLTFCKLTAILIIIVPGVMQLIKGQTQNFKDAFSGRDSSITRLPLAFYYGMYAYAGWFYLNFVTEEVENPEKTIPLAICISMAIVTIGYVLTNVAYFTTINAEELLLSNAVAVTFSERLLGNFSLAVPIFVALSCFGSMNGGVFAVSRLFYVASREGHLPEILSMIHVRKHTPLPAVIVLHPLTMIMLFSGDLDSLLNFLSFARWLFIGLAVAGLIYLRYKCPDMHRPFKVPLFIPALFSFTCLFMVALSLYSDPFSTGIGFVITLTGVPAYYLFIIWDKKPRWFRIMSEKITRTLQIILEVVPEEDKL

[2] = target: T1, Cystine/glutamate transporter (Homo sapiens); experiment: Inhibition of XCT in CpG-A-activated human plasmacytoid dendritic cells at 200 uM assessed as decrease in TNF production; assay type: cell-based; settings: Plasmacytoid dendritic cell
[3] = target: T1, Cystine/glutamate transporter (Homo sapiens); experiment: Inhibition of XCT in CpG-A-activated human plasmacytoid dendritic cells at 200 uM assessed as decrease in S6 phosphorylation; assay type: cell-based; settings: Plasmacytoid dendritic cell
[4] = target: T1, Cystine/glutamate transporter (Homo sapiens); experiment: Inhibition of XCT in CpG-A-activated human plasmacytoid dendritic cells at 200 uM assessed as decrease in kynurenine uptake; assay type: cell-based; settings: Plasmacytoid dendritic cell
[5] = target: T1, Cystine/glutamate transporter (Homo sapiens); experiment: Inhibition of XCT in CpG-A-activated human plasmacytoid dendritic cells at 200 uM assessed as decrease in ENPP2 expression; assay type: cell-based; settings: Plasmacytoid dendritic cell
[6] = target: T1, Cystine/glutamate transporter (Homo sapiens); experiment: Inhibition of XCT in CpG-A-activated human plasmacytoid dendritic cells at 200 uM assessed as decrease in MYO1E expression; assay type: cell-based; settings: Plasmacytoid dendritic cell
[7] = target: T1, Cystine/glutamate transporter (Homo sapiens); experiment: Inhibition of XCT in CpG-A-activated human plasmacytoid dendritic cells at 100 uM assessed as decrease in IFN-alpha production in presence of 25 to 100 uM baricitinib; assay type: cell-based; settings: Plasmacytoid dendritic cell
[8] = target: Tyrosine-protein kinase JAK2 (Homo sapiens) (UniProt O60674); experiment: Inhibition of JAK2 in CpG-A-activated human plasmacytoid dendritic cells at 100 uM assessed as decrease in TNF production in presence of 25 to 100 uM baricitinib; assay type: cell-based; settings: Plasmacytoid dendritic cell
[9] = target: T2, Cystine/glutamate transporter (Homo sapiens, UniProt Q9UPY5); experiment: Inhibition of XCT (unknown origin)
T2 sequence (Q9UPY5 whole entry): T1 sequence (whole entry)

[10] = tested on: Plasmacytoid dendritic cell; experiment: Inhibition of mTORC1/mTORC2 in TLR9-activated human plasmacytoid dendritic cells at 1 uM assessed as decrease in CpG-A stimulated SLC7A11 expression; assay type: cell-based
[11] = target: T1, Cystine/glutamate transporter (Homo sapiens); experiment: Inhibition of XCT in CpG-A-activated human plasmacytoid dendritic cells at 25 to 100 uM assessed as decrease in TNF production in presence of 100 uM sulfasalazine; assay type: cell-based; settings: Plasmacytoid dendritic cell, dose 25-100 µM
[12] = tested on: Plasmacytoid dendritic cell; experiment: Inhibition of mTORC1/mTORC2 in CpG-A and IL-3-activated human plasmacytoid dendritic cells at 200 ng/mL assessed as decrease in SLC7A5 expression; assay type: cell-based
[13] = tested on: Plasmacytoid dendritic cell; experiment: Inhibition of mTORC1/mTORC2 in CpG-A and IL-3-activated human plasmacytoid dendritic cells at 200 ng/mL assessed as decrease in SLC3A2 expression; assay type: cell-based
[14] = tested on: Plasmacytoid dendritic cell; experiment: Inhibition of mTORC1/mTORC2 in CpG-A and IL-3-activated human plasmacytoid dendritic cells at 200 ng/mL assessed as decrease in IFN-alpha production; assay type: cell-based
[15] = tested on: Plasmacytoid dendritic cell; experiment: Inhibition of mTORC1/mTORC2 in CpG-A and IL-3-activated human plasmacytoid dendritic cells at 200 ng/mL assessed as decrease in TNF production; assay type: cell-based
[16] = tested on: Plasmacytoid dendritic cell; experiment: Inhibition of mTORC1/mTORC2 in IL-3 and CpG-A-activated human plasmacytoid dendritic cells at 200 nM assessed as decrease in decrease in ENPP2/IFNA2 expression; assay type: cell-based
[17] = tested on: Plasmacytoid dendritic cell; experiment: Inhibition of mTORC1/mTORC2 in IL-3 and CpG-A-activated human plasmacytoid dendritic cells at 200 nM assessed as decrease in decrease in MYO1E/IFNA2 expression; assay type: cell-based
[18] = target: Large neutral amino acids transporter small subunit 1 (Homo sapiens) (UniProt Q01650); experiment: Inhibition of human LAT1 at 100 uM relative to control
[19] = target: Glyceraldehyde-3-phosphate dehydrogenase (Homo sapiens) (UniProt P04406); experiment: Inhibition of GAPDH in CpG-A-stimulated human plasmacytoid dendritic cells at 10 uM assessed as reduction in TNF production; assay type: cell-based; settings: Plasmacytoid dendritic cell
[20] = target: Glyceraldehyde-3-phosphate dehydrogenase (Homo sapiens) (UniProt P04406); experiment: Inhibition of GAPDH in CpG-A-stimulated human plasmacytoid dendritic cells at 10 uM assessed as reduction in IFNa-alpha production; assay type: cell-based; settings: Plasmacytoid dendritic cell
[21] = target: Glyceraldehyde-3-phosphate dehydrogenase (Homo sapiens) (UniProt P04406); experiment: Inhibition of GAPDH in CpG-A-stimulated human plasmacytoid dendritic cells at 10 uM assessed as reduction in overall protein synthesis; assay type: cell-based; settings: Plasmacytoid dendritic cell
[22] = target: Glyceraldehyde-3-phosphate dehydrogenase (Homo sapiens) (UniProt P04406); experiment: Inhibition of GAPDH in CpG-A-stimulated human plasmacytoid dendritic cells at 10 uM assessed as reduction in secreted lactate levels; assay type: cell-based; settings: Plasmacytoid dendritic cell
[23] = target: Glyceraldehyde-3-phosphate dehydrogenase (Homo sapiens) (UniProt P04406); experiment: Inhibition of GAPDH in CpG-A-stimulated human plasmacytoid dendritic cells at 10 uM assessed as reduction in IFN-alpha production in presence of 1 uM oligomycin; assay type: cell-based; settings: Plasmacytoid dendritic cell
[24] = target: Glyceraldehyde-3-phosphate dehydrogenase (Homo sapiens) (UniProt P04406); experiment: Inhibition of GAPDH in CpG-A-stimulated human plasmacytoid dendritic cells at 10 uM assessed as reduction in TNF production in presence of 1 uM oligomycin; assay type: cell-based; settings: Plasmacytoid dendritic cell

Glyceraldehyde-3-phosphate dehydrogenase (Homo sapiens), sequence (P04406 2-335 limits assumed): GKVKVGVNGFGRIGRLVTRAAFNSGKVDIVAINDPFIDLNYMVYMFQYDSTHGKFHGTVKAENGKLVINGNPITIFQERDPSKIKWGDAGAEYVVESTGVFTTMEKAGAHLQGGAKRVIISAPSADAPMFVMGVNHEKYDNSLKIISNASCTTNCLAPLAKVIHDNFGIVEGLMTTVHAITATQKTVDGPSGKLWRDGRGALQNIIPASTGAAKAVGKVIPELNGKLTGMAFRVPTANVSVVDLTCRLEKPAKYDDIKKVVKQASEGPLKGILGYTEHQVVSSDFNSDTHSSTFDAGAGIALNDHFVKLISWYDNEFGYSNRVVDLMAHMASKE
Large neutral amino acids transporter small subunit 1 (Homo sapiens), sequence (Q01650 whole entry): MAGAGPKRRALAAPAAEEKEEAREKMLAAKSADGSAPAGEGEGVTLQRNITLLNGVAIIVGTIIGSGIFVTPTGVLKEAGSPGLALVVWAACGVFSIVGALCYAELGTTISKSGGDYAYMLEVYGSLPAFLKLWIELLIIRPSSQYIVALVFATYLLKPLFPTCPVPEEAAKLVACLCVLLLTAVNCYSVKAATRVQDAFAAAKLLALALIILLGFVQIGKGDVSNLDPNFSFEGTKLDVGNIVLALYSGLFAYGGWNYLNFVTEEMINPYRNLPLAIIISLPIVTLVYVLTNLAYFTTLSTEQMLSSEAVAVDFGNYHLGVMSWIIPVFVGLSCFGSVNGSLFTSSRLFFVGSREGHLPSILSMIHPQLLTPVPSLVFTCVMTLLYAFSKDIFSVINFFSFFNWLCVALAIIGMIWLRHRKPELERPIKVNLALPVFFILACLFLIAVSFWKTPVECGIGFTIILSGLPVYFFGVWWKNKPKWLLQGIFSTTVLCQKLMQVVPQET
Tyrosine-protein kinase JAK2 (Homo sapiens), sequence (O60674 whole entry): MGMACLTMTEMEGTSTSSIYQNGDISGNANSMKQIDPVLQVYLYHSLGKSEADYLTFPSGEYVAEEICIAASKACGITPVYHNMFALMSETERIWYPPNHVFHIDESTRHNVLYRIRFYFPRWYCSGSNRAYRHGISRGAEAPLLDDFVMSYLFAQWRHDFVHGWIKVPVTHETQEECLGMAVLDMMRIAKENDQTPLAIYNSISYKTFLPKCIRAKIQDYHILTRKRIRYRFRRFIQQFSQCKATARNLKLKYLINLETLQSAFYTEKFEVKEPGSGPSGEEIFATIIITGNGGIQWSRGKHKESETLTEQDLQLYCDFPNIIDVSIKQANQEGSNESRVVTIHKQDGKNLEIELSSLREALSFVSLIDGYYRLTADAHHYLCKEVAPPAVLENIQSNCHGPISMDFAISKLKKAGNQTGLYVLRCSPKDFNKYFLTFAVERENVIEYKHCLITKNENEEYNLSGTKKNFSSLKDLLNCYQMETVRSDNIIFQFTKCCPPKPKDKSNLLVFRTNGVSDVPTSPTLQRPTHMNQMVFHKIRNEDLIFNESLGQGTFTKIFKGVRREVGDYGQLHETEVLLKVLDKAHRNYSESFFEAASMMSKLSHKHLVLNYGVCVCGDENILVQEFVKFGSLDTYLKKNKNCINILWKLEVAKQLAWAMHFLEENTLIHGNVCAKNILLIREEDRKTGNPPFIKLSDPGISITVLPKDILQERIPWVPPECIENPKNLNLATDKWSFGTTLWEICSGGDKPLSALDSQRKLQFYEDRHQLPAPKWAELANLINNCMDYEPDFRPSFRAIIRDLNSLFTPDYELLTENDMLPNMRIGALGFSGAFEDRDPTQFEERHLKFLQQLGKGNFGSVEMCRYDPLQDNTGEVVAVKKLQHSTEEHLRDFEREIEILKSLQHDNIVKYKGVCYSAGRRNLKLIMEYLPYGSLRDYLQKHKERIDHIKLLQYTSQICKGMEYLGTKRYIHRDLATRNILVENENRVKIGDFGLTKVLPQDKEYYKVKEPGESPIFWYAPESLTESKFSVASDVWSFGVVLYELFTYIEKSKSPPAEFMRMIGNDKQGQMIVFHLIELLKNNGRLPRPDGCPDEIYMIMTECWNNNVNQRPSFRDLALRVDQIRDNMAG

- inhibition [1]: Active
- inhibition [2]: Active
- inhibition [3]: Active
- inhibition [4]: Active
- inhibition [5]: Active
- inhibition [6]: Active
- inhibition [7]: Active
- inhibition [8]: Active
- IC50 [9]: 10.4 µM
SMILES: O=C(O)c1cc(/N=N/c2ccc(S(=O)(=O)Nc3ccccn3)cc2)ccc1O [SULFASALAZINE]

SMILES: Nc1c(/N=N/c2ccc(Br)cc2)cc(S(=O)(=O)O)c2ccccc12
- IC50 [9]: 25 µM

SMILES: Cc1cc(Nc2nc(N[C@@H](C)c3ncc(F)cn3)ncc2Cl)[nH]n1
- inhibition [10]: Active

SMILES: Nc1c(/N=N/c2ccc(Oc3ccccc3)cc2)cc(S(=O)(=O)O)c2ccccc12
- IC50 [9]: 14 µM

- inhibition [11]: Active
SMILES: CCS(=O)(=O)N1CC(CC#N)(n2cc(-c3ncnc4[nH]ccc34)cn2)C1

SMILES: CCC(=O)N1CCN(c2ccc(-n3c(=O)ccc4cnc5ccc(-c6cnc7ccccc7c6)cc5c43)cc2C(F)(F)F)CC1
- inhibition [12]: Active
- inhibition [13]: Active
- inhibition [14]: Active
- inhibition [15]: Active
- inhibition [10]: Active
- inhibition [16]: Active
- inhibition [17]: Active

- inhibition [18]: > 90%
SMILES: N#Cc1cc(Cl)ccc1/N=c1\ssnc1Cl

- inhibition [19]: Active
- inhibition [20]: Active
- inhibition [21]: Active
- inhibition [22]: Active
- inhibition [23]: Active
- inhibition [24]: Active
SMILES: CC(C)[C@H]1CC[C@@]2(CO2)[C@H]2C(=O)OCC(C(=O)O)=C[C@H]12

SMILES: Nc1ccc(/N=N/c2ccc(-c3ccc(/N=N/c4ccc(N)c5ccc(S(=O)(=O)O)cc45)cc3)cc2)c2cc(S(=O)(=O)O)ccc12
- IC50 [9]: 4.3 µM
